Laboratory results: patent US9856220B2 (AbbVie Deutschland GmbH & Co. KG, priority 2011, dated 2018)

Biological target: PDE10A (Homo sapiens (Human), UniProt Q9Y233)
Experiment: Measurement of PDE activity (recombinant PDE, cAMP HTRF)
Assay type: biochemical
Conditions: 20 nM cyclic nucleotide substrate, 60 minutes at 29 C
Experimental: a) Measurement of PDE Activity
The recombinant PDE proteins are used in in vitro enzymatic reaction for measurement of PDE activity. These recombinant proteins, including PDE10A (human, rat and mouse PDE10) and isoforms of PDEs 1, 3, 4, and 5, were purchased from commercial vendor BPS Bioscience. The enzymatic activity of PDEs was determined by cAMP measurement kit from CisBio (IBA) using HTRF technology.
The PDE enzymatic reaction was carried out in assay buffer (20 mM Tris-HCl pH7.5, 10 mM MgCl2, 0.1% bovine serum albumin) containing enzyme and substrate. […] The substrate cyclic nucleotide (cAMP or cGMP) concentration used in the assay was 20 nM for PDE10, and 100 nM for other PDEs. The inhibitory effect of compound was determined by incubating various concentration of inhibitor in the enzymatic assay. […] Next, the compound at varying concentration was mixed with PDE enzyme. The reaction was initiated by addition of cyclic nucleotide substrate, and incubated for 60 minutes at 29 C. The reaction was stopped by addition of lysis buffer from assay kit. The cAMP-d2 and anti-cAMP cryptate in the lysis buffer detected the level of cAMP left from the PDE hydrolysis reaction. […] Thus, IC50 value of inhibitor can be obtained by plotting inhibitor concentration against PDE activity at that concentration.

PDE10A, sequence (Q9Y233 whole entry, species assumed): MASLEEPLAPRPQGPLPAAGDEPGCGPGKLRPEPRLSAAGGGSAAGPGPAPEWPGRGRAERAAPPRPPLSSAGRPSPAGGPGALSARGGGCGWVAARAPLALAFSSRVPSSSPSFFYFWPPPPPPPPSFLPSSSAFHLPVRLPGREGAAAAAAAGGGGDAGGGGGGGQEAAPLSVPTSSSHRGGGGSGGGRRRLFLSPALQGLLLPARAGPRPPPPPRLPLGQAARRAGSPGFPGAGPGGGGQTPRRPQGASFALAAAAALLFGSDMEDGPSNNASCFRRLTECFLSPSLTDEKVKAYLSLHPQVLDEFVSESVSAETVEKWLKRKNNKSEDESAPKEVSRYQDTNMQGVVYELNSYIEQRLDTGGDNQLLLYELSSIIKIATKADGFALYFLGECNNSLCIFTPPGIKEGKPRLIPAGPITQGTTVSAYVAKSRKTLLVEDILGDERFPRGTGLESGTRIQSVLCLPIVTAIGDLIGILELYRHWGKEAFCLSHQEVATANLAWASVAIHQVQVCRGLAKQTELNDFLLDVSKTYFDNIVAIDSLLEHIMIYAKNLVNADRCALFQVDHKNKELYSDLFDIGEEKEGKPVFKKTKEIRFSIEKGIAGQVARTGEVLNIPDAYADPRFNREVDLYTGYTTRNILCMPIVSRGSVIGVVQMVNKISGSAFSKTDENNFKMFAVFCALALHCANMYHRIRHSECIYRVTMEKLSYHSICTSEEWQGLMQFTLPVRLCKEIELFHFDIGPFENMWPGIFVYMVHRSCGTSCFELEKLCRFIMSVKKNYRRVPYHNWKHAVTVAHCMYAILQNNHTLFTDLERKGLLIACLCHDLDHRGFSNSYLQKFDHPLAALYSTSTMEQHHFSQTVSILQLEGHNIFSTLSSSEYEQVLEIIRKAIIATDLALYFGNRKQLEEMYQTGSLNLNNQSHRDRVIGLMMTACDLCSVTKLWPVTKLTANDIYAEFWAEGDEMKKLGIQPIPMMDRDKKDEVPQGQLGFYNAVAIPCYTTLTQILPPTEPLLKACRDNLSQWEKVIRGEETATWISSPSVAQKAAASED

`CCC(C)CNC(=O)c1cn(CC)c(=O)c2cc(OC)c(OC)cc12` (stereo not shown) [Example 20, 2-Ethyl-6,7-dimethoxy-1-oxo-1,2-dihydro-isoquinoline-4-carboxylic acid (2-methyl-butyl)-amide] and `CCCCCNC(=O)c1cn(CC)c(=O)c2cc(OC)c(OC)cc12` [Example 21, 2-Ethyl-6,7-dimethoxy-1-oxo-1,2-dihydro-isoquinoline-4-carboxylic acid pentylamide] fall in the same range of IC50: 200 to 500 nM for the first, 200 to 500 nM for the second.

`CCn1cc(C(=O)NCc2cccc(Cl)c2)c2cc(OC)c(OC)cc2c1=O` [Example 142, N-(3-Chlorobenzyl)-2-ethyl-6,7-dimethoxy-1-oxo-1,2-dihydroisoquinoline-4-carboxamide] and `CCn1cc(C(=O)NCc2cccc(C)c2)c2cc(OC)c(OC)cc2c1=O` [Example 153] fall in the same range of IC50: 100 to 200 nM for the first, 100 to 200 nM for the second.

`CCn1cc(C(=O)NCc2ccc(F)cc2)c2cc(OC)c(OC)cc2c1=O` [Example 32, 2-Ethyl-6,7-dimethoxy-1-oxo-1,2-dihydro-isoquinoline-4-carboxylic acid 4-fluoro-benzylamide] and `CCn1cc(C(=O)NCc2ccc(OC)cc2)c2cc(OC)c(OC)cc2c1=O` [Example 152, 2-Ethyl-6,7-dimethoxy-N-(4-methoxybenzyl)-1-oxo-1,2-dihydroisoquinoline-4-carboxamide] fall in the same range of IC50: 200 to 500 nM for the first, 200 to 500 nM for the second.

Compared with `CCn1cc(C(=O)NCc2ccc(F)c(F)c2)c2cc(OC)c(OC)cc2c1=O` [Example 36, 2-Ethyl-6,7-dimethoxy-1-oxo-1,2-dihydro-isoquinoline-4-carboxylic acid 3,4-difluoro-benzylamide], `CCn1cc(C(=O)NCc2ccc(F)cc2F)c2cc(OC)c(OC)cc2c1=O` [Example 34, 2-Ethyl-6,7-dimethoxy-1-oxo-1,2-dihydro-isoquinoline-4-carboxylic acid 2,4-difluoro-benzylamide] is higher in IC50: 100 to 200 nM for the first, 200 to 500 nM for the second.

`CCn1cc(C(=O)Nc2cccc(C)c2)c2cc(OC)c(OC)cc2c1=O` [Example 145, 2-Ethyl-6,7-dimethoxy-1-oxo-N-m-tolyl-1,2-dihydroisoquinoline-4-carboxamide] and `CCn1cc(C(=O)Nc2ccccc2OC)c2cc(OC)c(OC)cc2c1=O` [Example 146, 2-Ethyl-6,7-dimethoxy-N-(2-methoxyphenyl)-1-oxo-1,2-dihydroisoquinoline-4-carboxamide] fall in the same range of IC50: 200 to 500 nM for the first, 200 to 500 nM for the second.

First: CCC(CC)n1cc(C(=O)NCc2ccc(C#N)o2)c2cc(OC)c(OC)cc2c1=O [Example 264, N-((5-Cyanofuran-2-yl)methyl)-6,7-dimethoxy-1-oxo-2-(pentan-3-yl)-1,2-dihydroisoquinoline-4-carboxamide]
Second: CCC(CC)n1cc(C(=O)NCc2ccc(C)s2)c2cc(OC)c(OC)cc2c1=O [Example 237, 6,7-Dimethoxy-N-((5-methylthiophen-2-yl)methyl)-1-oxo-2-(pentan-3-yl)-1,2-dihydroisoquinoline-4-carboxamide]
The IC50 of the first is higher: 200 to 500 nM for the first, 100 to 200 nM for the second.

`CCn1cc(C(=O)N2Cc3ccccc3C2)c2cc(OC)c(OC)cc2c1=O` [Example 51, 4-(1,3-Dihydro-isoindole-2-carbonyl)-2-ethyl-6,7-dimethoxy-2H-isoquinolin-1-one] and `CCn1cc(C(=O)NCc2ccccc2F)c2cc(OC)c(OC)cc2c1=O` [Example 30, 2-Ethyl-6,7-dimethoxy-1-oxo-1,2-dihydro-isoquinoline-4-carboxylic acid 2-fluoro-benzylamide] fall in the same range of IC50: 200 to 500 nM for the first, 200 to 500 nM for the second.

Compared with `CCC(CC)n1cc(C(=O)NCc2cc(C)cs2)c2cc(OC)c(OC)cc2c1=O` [Example 257, 6,7-Dimethoxy-N-((4-methylthiophen-2-yl)methyl)-1-oxo-2-(pentan-3-yl)-1,2-dihydroisoquinoline-4-carboxamide], `CCc1ccc(CNC(=O)c2cn(C(CC)CC)c(=O)c3cc(OC)c(OC)cc23)s1` [Example 266, N-((5-Ethylthiophen-2-yl)methyl)-6,7-dimethoxy-1-oxo-2-(pentan-3-yl)-1,2-dihydroisoquinoline-4-carboxamide] is higher in IC50: 100 to 200 nM for the first, 200 to 500 nM for the second. The first is the more potent here.

`CCn1cc(C(=O)NCc2ccc(C)cc2OC(C)C)c2cc(OC)c(OC)cc2c1=O` [Example 302, 2-Ethyl-N-(2-isopropoxy-4-methylbenzyl)-6,7-dimethoxy-1-oxo-1,2-dihydroisoquinoline-4-carboxamide] and `CCC(C)Oc1cc(C)ccc1CNC(=O)c1cn(CC)c(=O)c2cc(OC)c(OC)cc12` (stereo not shown) [Example 298, N-(2-sec-Butoxy-4-methylbenzyl)-2-ethyl-6,7-dimethoxy-1-oxo-1,2-dihydroisoquinoline-4-carboxamide] fall in the same range of IC50: 200 to 500 nM for the first, 200 to 500 nM for the second.

`CCn1cc(C(=O)NCC2CCCCC2)c2cc(OC)c(OC)cc2c1=O` [Example 28, 2-Ethyl-6,7-dimethoxy-1-oxo-1,2-dihydro-isoquinoline-4-carboxylic acid cyclohexylmethyl-amide] and `CCn1cc(C(=O)NCc2ccncn2)c2cc(OC)c(OC)cc2c1=O` [Example 139, 2-Ethyl-6,7-dimethoxy-1-oxo-N-(pyrimidin-4-ylmethyl)-1,2-dihydroisoquinoline-4-carboxamide] fall in the same range of IC50: 200 to 500 nM for the first, 200 to 500 nM for the second.

First: CCC(CC)n1cc(C(=O)NC2CCc3sccc32)c2cc(OC)c(OC)cc2c1=O (stereo not shown) [Example 193, 2-(1-Ethyl-propyl)-6,7-dimethoxy-1-oxo-1,2-dihydro-isoquinoline-4-carboxylic acid (5,6-dihydro-4H-cyclopenta[b]thiophen-4-yl)-amide]
Second: CCC(CC)n1cc(C(=O)N[C@@H]2CCc3ccccc32)c2cc(OC)c(OC)cc2c1=O [Example 191, 2-(1-Ethyl-propyl)-6,7-dimethoxy-1-oxo-1,2-dihydro-isoquinoline-4-carboxylic acid (R)-indan-1-ylamide]
The IC50 of the first is lower: less than 100 nM for the first, 200 to 500 nM for the second.

Compared with `CCn1cc(C(=O)NC2CCc3cc(Cl)ccc32)c2cc(OC)c(OC)cc2c1=O` (stereo not shown) [Example 169, N-(5-Chloro-2,3-dihydro-1H-inden-1-yl)-2-ethyl-6,7-dimethoxy-1-oxo-1,2-dihydroisoquinoline-4-carboxamide], `CCC(CC)n1cc(C(=O)NC2CCc3cc(F)ccc32)c2cc(OC)c(OC)cc2c1=O` (stereo not shown) [Example 252, N-(5-Fluoro-2,3-dihydro-1H-inden-1-yl)-6,7-dimethoxy-1-oxo-2-(pentan-3-yl)-1,2-dihydroisoquinoline-4-carboxamide] is lower in IC50: 200 to 500 nM for the first, 100 to 200 nM for the second.

Compared with `CCn1cc(C(=O)NCc2ccccc2OC)c2cc(OC)c(OC)cc2c1=O` [Example 140], `CCC(CC)n1cc(C(=O)NCc2ccc(C)cc2)c2cc(OC)c(OC)cc2c1=O` [Example 262, 6,7-Dimethoxy-N-(4-methylbenzyl)-1-oxo-2-(pentan-3-yl)-1,2-dihydroisoquinoline-4-carboxamide] is lower in IC50: 200 to 500 nM for the first, 100 to 200 nM for the second.

`CCC(CC)n1cc(C(=O)NC2COc3ccccc32)c2cc(OC)c(OC)cc2c1=O` (stereo not shown) [Example 194, 2-(1-Ethyl-propyl)-6,7-dimethoxy-1-oxo-1,2-dihydro-isoquinoline-4-carboxylic acid (2,3-dihydro-benzofuran-3-yl)-amide] and `CCC(CC)n1cc(C(=O)NC2CSc3ccccc32)c2cc(OC)c(OC)cc2c1=O` (stereo not shown) [Example 216, 2-(1-Ethyl-propyl)-6,7-dimethoxy-1-oxo-1,2-dihydro-isoquinoline-4-carboxylic acid (2,3-dihydro-benzo[b]thiophen-3-yl)-amide] cannot be ordered by IC50: less than 100 nM for the first, less than 100 nM for the second.
